Reference: US20180008629A1, “Compositions and Methods for Treating NLRP3 Inflammasome-Related Diseases and Disorders” (priority 2015, published 2018)

Key:
[1] = due to increased clearance; literature; cited from earlier work
NLRP3 inflammasome [2] = molecular target: T1, NLRP3 inflammasome (Mus musculus, UniProt Q8R4B8); test: IL-1β secretion from mouse neutrophils after NLRP3 activation (western blot); assay type: cell-based; design: endogenous in cells; host or cells: mouse bone marrow neutrophils (A15)
T1 sequence (Q8R4B8 whole entry): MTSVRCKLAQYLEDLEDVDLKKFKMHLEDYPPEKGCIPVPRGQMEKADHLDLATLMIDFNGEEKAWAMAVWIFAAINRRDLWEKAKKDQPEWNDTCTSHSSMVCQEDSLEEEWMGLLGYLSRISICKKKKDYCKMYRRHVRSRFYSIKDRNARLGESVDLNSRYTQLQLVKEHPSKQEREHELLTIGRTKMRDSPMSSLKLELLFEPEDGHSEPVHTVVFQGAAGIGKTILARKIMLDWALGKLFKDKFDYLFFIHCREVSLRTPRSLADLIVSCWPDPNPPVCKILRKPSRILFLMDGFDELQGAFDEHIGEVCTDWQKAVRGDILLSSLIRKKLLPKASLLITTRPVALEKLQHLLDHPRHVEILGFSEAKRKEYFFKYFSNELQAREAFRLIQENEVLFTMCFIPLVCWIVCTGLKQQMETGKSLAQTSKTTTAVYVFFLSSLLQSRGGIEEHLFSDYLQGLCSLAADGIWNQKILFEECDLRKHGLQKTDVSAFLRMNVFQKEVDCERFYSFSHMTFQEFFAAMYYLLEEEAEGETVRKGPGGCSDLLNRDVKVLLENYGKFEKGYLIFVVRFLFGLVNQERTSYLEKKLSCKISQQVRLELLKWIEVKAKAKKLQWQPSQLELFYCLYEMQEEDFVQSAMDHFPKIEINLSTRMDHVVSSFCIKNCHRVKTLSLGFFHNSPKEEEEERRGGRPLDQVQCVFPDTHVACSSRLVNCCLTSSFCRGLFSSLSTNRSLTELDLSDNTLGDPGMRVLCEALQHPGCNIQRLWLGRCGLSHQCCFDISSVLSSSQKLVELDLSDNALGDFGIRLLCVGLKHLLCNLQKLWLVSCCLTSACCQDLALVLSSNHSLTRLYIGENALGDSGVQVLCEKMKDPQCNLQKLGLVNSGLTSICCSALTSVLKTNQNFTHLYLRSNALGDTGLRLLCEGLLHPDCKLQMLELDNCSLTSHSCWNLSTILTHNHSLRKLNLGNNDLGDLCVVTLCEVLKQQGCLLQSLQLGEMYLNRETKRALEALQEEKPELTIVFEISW
Procedure: Neutrophils from young (3 month) and aged (24 months) mice were stimulated with LPS, and the NLRP3 inflammasome was activated by treatment with ATP and C6 Ceramide. BHB was provided at the same time of ATP and ceramide treatment.
Adult and old neutrophils were analyzed for ketogenic and ketolytic enzyme expression. Gene expression was measured by RT-PCR (FIG. 14A). Expression was normalized to Gapdh expression and was represented as expression relative to adult gene expression. SCOT, HMGCL, and β-Actin protein expression were assessed in unstimulated adult and old neutrophils by Western blot (FIG. 14B). Dose response to BHB was measured by assaying IL-1β secretion in supernatants from adult neutrophils (FIG. 14C). Western blots were generated of IL-1β in supernatants from adult and old neutrophils stimulated with LPS+ATP or LPS+ceramide (FIG. 14D). In FIG. 14A, each dot represents a pooled sample of n=2 mice. In FIGS. 14B-14D, each blot is representative of at least two independent experiments. Each sample analyzed by Western blot is pooled from n=4-6 mice per experiment.
Adult neutrophils were stimulated with LPS+ATP+BHB to test the mechanism by which BHB blocks IL-1β secretion. LPS-primed neutrophils were stimulated with ATP in the presence of BHB or niacin (FIG. 15A). Supernatants were analyzed for IL-1β secretion by Western blot. Wildtype of mCAT neutrophils were stimulated with LPS+ATP+BHB (FIG. 15B). Supernatants were analyzed for IL-1β secretion by Western blot. Catalase and β-Actin expression were measured by Western blot in neutrophil cell lysates. LPS-primed neutrophils were stimulated with ATP+BHB in the presence of 3-MA or AOA as indicated (FIG. 15C). Supernatants were analyzed for IL-1β secretion by Western blot. The enantiomer S-BHB was tested in a dose response for the ability to inhibit inflammasome activation (FIG. 15D). Supernatants were analyzed for IL-1β secretion by Western blot. FCAS neutrophils were incubated with 4-OHT followed by LPS priming. […] Supernatants were analyzed for IL-1β secretion by Western blot. […]

NLRP3 inflammasome [3] = molecular target: T1, NLRP3 inflammasome; test: NLRP3 inflammasome activation in LPS primed BMDMs (caspase-1 / IL-1β immunoblot); assay type: cell-based; design: endogenous in cells; host or cells: mouse bone marrow derived macrophages (A1)
Procedure: All steps were performed using sterile technique. Femurs were collected in RPMI (Life Technologies, Grand Island, N.Y.)+5% FBS (R5; Omega Scientific, Tarzana, Calif.). Both ends of the femur were then cut and the femur was flushed with R5. The bone marrow was centrifuge at 450 g for 5 min, the supernatant was decanted and red blood cells were lysed using ACK lysis buffer (Quality Biological, Gaithersburg, Md.). After neutralization with R5, bone marrow cells were centrifuged, resuspended in 10 ml of R5 and placed into a 6 well plate. Non-adherent cells were collected the following morning. The non-adherent cells were resuspended at 4×10^6 cells/ml in media consisting of 10 ml supernatant of non-adherent cells, 7.2 ml L929 conditioned media, 6.8 ml R5 and MCSF (long/ml; R&D Systems, Minneapolis, Minn.). An additional 2 ml of fresh media was added 4 d after isolation. Non-adherent cells were collected on day 7, separated by density gradient separation using Fico/Lite (Atlanta Biologicals, Flowery Branch, Ga.) and mononuclear cells were collected. Cells were rinsed twice with Dulbecco's PBS+2% FBS, and resuspended at 1×10^6 cells/ml. Cells were treated with ultrapure LPS (Invivogen, San Diego, Calif.) alone or in combination with 5 mM ATP (Sigma, St. Louis, Mo.) or 200 μM palmitate-BSA (Sigma). The BMDMs were also primed with ultrapure lipid A (10 μg/ml; Invivogen, San Diego, Calif.), lipoteichoic acid (10 μg/ml; Invivogen), or Pam3-CSK4 (10 μg/ml; Invivogen) for 4 hour and stimulated with various NLRP3 activators (ATP 5 mM; Sigma, MSU 250 ug/ml; Invivogen, Silica; 200 ug/ml; Invivogen, sodium palmitate; 200 μM; Sigma, ceramide C6 80 μg/ml; Cayman, and sphingosine 40 μM; Cayman, Ann Arbor, Mich.) for 1 hour together with D-BHB or L-(BHB) at indicated concentration. The cell supernatants and cell lysates were collected 1 h after BHB treatment and analyzed for caspase-1 and IL-1β.
The BMDM cell lysates were prepared using RIPA buffer and immediately snap frozen in liquid nitrogen. Samples were left on ice for 1 hour with vortexing every 10 min. Samples were then centrifuge at 14,000 g for 15 min, the supernatant was collected and the protein concentration was determined using the DC Protein Assay (Bio-RAD). […] The immune complexes were visualized by incubation with horseradish peroxidase-conjugated anti-rat or anti-rabbit secondary antibody (Amersham Biosciences). Immunoreactive bands were visualized by enhanced chemiluminescence (PerkinElmer Life Sciences).

NLRP3^L351P = NLRP3^L351P (Mus musculus, UniProt Q8R4B8, L351P); assay type: cell-based; design: endogenous in cells; Nlrp3 L351P Cre+ mice after tamoxifen in vivo (A14); details: constitutively active NLRP3 inflammasome, LPS
NLRP3^L351P, sequence (Q8R4B8 whole entry L351P): as the sequence (Q8R4B8 whole entry) above, with L351P counted along it

human neutrophils = test: IL-1β secretion from human peripheral blood neutrophils (ELISA); assay type: cell-based; details: peripheral blood neutrophils from adult (30-40 years) and old (65-75 years)
Procedure: BHB was also observed to inhibit IL1B production from human neutrophils irrespective of age. Peripheral blood neutrophils from adult (30-40 years) and old (65-75 years) were enriched and stimulated as indicated (FIG. 20). IL-1β secretion was measured in culture supernatants by ELISA. Data are expressed as mean±S.E.M (*p<0.01).

ASC = molecular target: T2, ASC (Mus musculus, UniProt Q9EPB4); test: ASC oligomerization and ASC speck formation in BMDMs; assay type: cell-based
T2 construct: endogenous in cells; host or cells: mouse BMDMs primed with LPS and stimulated with ATP
T2 sequence (Q9EPB4 1-193): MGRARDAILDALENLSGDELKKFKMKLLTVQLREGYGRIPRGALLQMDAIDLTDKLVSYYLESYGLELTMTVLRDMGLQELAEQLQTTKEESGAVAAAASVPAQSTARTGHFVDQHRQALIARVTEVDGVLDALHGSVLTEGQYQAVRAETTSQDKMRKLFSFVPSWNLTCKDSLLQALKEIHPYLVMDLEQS
Procedure: The ASC oligomerization was performed using previously described methods (Yu et al., 2006, Cell. Death Differ. 13:236-249). BMDM were plated on chamber slides and allowed to attach overnight. The following day cells were primed with LPS and treated with ATP±BHB (10 mM) as described in the materials and methods. Cells were fixed with 4% paraformaldehyde followed by ASC (Enzo Lifesciences) and DAPI staining. ASC specks were quantified using ImageJ software. At least 5 distinct fields were analyzed and a minimum of 550 cells from each treatment condition were quantified. Data are shown as mean±SD and are representative of two independent experiments. Statistical differences were calculated by student's t-test.

[4] = Gout induced by intra-articular injection of MSU in rats fed ketogenic diet; assay type: in vivo, rat; details: ketogenic diet 1 week
Procedure: Rats were fed a ketogenic diet for 1 week prior to the induction of gout by intra-articular injection of MSU. Blood BHB levels were measured in rats after 1 week ketogenic diet feeding, prior to injection with MSU (FIG. 21A). Knee thickness was measured daily (FIG. 21B). The increase in knee swelling relative to baseline thickness was measured 2 days after gout induction (FIG. 21C). Serum IL-1β was measured by ELISA on day 2 post-MSU injection (FIG. 21D).

caspase-11 = test: Non-canonical inflammasome pathway, caspase-11 immunoblot in LPS treated BMDMs; assay type: cell-based, mouse; details: BMDMs treated with LPS 4 h
NLRC4 = molecular target: T3, NLRC4 (Mus musculus, UniProt Q3UP24); assay type: cell-based; details: BMDMs infected with Salmonella typhimurium, 0, 1, 5, or 10 mM BHB
T3 construct: endogenous in cells; host or cells: mouse BMDMs infected with Salmonella typhimurium (SL1344)
T3 sequence (Q3UP24 whole entry): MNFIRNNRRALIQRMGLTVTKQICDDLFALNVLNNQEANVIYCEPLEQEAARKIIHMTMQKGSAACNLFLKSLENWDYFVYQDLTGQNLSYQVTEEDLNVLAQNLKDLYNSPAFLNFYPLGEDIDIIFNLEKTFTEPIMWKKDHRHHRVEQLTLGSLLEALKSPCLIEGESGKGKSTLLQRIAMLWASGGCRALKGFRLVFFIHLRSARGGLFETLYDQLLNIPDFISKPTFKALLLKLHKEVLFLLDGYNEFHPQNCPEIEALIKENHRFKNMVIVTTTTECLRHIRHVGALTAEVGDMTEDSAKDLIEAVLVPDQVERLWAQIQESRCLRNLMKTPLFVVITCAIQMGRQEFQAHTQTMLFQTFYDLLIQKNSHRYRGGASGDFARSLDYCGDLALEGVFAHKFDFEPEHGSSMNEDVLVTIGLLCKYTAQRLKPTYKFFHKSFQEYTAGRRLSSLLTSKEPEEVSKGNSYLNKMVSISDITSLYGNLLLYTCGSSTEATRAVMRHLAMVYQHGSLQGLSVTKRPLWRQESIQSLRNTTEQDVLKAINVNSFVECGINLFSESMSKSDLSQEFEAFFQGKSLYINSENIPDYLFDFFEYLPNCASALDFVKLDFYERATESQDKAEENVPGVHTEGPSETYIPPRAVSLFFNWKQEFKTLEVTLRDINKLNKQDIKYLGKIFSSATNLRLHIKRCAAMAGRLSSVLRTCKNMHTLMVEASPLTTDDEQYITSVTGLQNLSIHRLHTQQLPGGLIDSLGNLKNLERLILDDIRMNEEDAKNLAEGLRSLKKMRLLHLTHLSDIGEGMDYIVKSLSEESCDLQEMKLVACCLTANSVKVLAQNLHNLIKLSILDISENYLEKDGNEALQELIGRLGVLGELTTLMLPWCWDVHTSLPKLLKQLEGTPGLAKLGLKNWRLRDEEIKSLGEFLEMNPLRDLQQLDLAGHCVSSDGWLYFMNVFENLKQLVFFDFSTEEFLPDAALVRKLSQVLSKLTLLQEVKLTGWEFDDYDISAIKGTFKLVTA

What does the source list for `CC(O)CC(=O)O` (stereo not drawn) [BHB, β-hydroxybutyrate]?
serum concentration after administration [1]: insufficient to achieve sustained high serum concentration; NLRP3 inflammasome activation in neutrophils (NLRP3 inflammasome [2]; adult and old mouse neutrophils, LPS+ATP or LPS+ceramide, IL-1β in supernatants): inhibit; mechanism of inhibitory effects in neutrophils (NLRP3 inflammasome [2]; adult neutrophils stimulated with LPS+ATP+BHB): physically blocking inflammasome assembly; IL-1β production after NLRP3 activation in neutrophils (NLRP3 inflammasome [2]; neutrophils from young (3 month) and aged (24 month) mice, LPS, ATP and C6 Ceramide, 10 mM BHB): blocks; BHB's inhibitory effects on the inflammasome in macrophages lacking Atg5 (NLRP3 inflammasome [3]; Atg5 deficient BMDMs, LPS, ATP, BHB (10 mM)): not required; ATP-induced caspase-1 activation without involvement of AMPK (NLRP3 inflammasome [3]; BHB (10 mM) with AICAR 2 mM or Compound C 25 μM): suppressed; ATP-induced IL-1β activation without involvement of AMPK (NLRP3 inflammasome [3]; BHB with AICAR or Compound C): suppressed; inflammasome activation after priming with Pam3-CSK4 (NLRP3 inflammasome [3]; BMDMs primed with TLR1/2 ligand Pam3-CSK4 4 h, ATP and BHB 1 h): effectively suppressed; inflammasome activation after priming with lipoteichoic acid (LTA) (NLRP3 inflammasome [3]; BMDMs primed with TLR2 agonist LTA 4 h, ATP and BHB 1 h): effectively suppressed; inflammasome activation after priming with lipid A (NLRP3 inflammasome [3]; BMDMs primed with TLR4 agonist lipid A 4 h, ATP and BHB 1 h): effectively suppressed; BHB's anti-inflammasome effects in BMDMs deficient in GPR109a (NLRP3 inflammasome [3]; Gpr109a deficient BMDMs, LPS and ATP, BHB (10, 20 mM)): could not be abrogated; processing of biologically active p17 form of IL-1β (NLRP3 inflammasome [3]; LPS primed BMDMs, ATP and BHB for 60 minutes): dose-dependently inhibited; ATP-induced caspase-1 cleavage (NLRP3 inflammasome [3]; LPS primed BMDMs, ATP and BHB for 60 minutes, Western blot of p20): dose-dependently inhibited; inflammasome activation by ceramides (NLRP3 inflammasome [3]; LPS primed BMDMs, C6 ceramide 6 h (80 μg/ml)): blocked; monosodium urate (MSU) crystals induced caspase-1 activation (NLRP3 inflammasome [3]; LPS primed BMDMs, MSU): inhibited; inflammasome activation by nigericin (NLRP3 inflammasome [3]; LPS primed BMDMs, nigericin (10 μM) 1 h): blocked; inflammasome activation by palmitate (NLRP3 inflammasome [3]; LPS primed BMDMs, palmitate (200 μM) 12 h): blocked; inflammasome activation by silica particles (NLRP3 inflammasome [3]; LPS primed BMDMs, silica 1 hour): blocked; inflammasome activation by sphingosine (NLRP3 inflammasome [3]; LPS primed BMDMs, sphingosine (50 μM) 1 h): blocked; BHB's inhibitory effects on NLRP3 activation after ablation of Sirt2 or UCP2 (NLRP3 inflammasome [3]; Sirt2−/− or Ucp2−/− BMDMs, LPS and ATP, BHB (10 mM) 1 h): did not control; ASC oligomerization in macrophages of FCAS mice (NLRP3^L351P): directly prevented; IL1B production from human neutrophils (human neutrophils): inhibit; ASC oligomerization in response to NLRP3 ligand ATP (ASC; BMDMs primed with LPS (4 h), ATP and BHB 1 h, DSS cross-linked ASC): prevented; ASC speck formation (ASC; BMDMs, LPS+ATP, BHB (10 mM)): prevented; Gout-induced inflammation [4]: protect; caspase-11 activation (caspase-11): neither butyrate nor BHB blocks; NLRC4 mediated caspase-1 cleavage (NLRC4): did not inhibit
